One assay has as its target T1, PDGFRβ (Homo sapiens, UniProt P09619).
T1 construct: expressed in transfected cells; host or cells: porcine aorta endothelial (PAE) cells
Nature of the assay: PAE-PDGFRβ phosphorylation in PAE-PDGFRB cells assay. Type of assay: cell-based. The conditions noted are these: PAE cells overexpressing human PDGFRβ, PDGF-BB stimulated; read-out: PAE PDGFR autophos IC50. The essentials: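 PAE cells overexpressing human PDGFRβ, serum-starved 16 h (0.1% FBS), compound 1 h at 37° C (0.5% DMSO), then 1 μg/mL PDGF-BB with 2 mM Na3VO4 for 8 min. Receptor captured by anti-PDGFRβ, phosphotyrosine detected by HRP-PY20/TMB at 450 nm; IC50 by four-parameter fit.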

In assay [1] the test system is human umbilical vein endothelial cells (HUVEC). The experiment in a line: HUVEC+VEGF proliferation assay. In kind it is cell-based. The conditions noted are these: Homo sapiens, HUVEC, 72 h, VEGF 6 ng/mL, MTT. The essentials:
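Proliferation driven by VEGF (final 6 ng/mL) was quantified by MTT reduction (A595) 72 h after stimulation. Passage 3-4 HUVEC were starved for 24 h in 1% FBS F12K and given test agent 1 h before VEGF, with DMSO at 0.1% final.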

In assay [2] the target is T2, unphosphorylated VEGF-R2Δ50 (FLVK) (Homo sapiens, UniProt P35968, DEL940-989/E990V).
T2 construct: VEGF-R2Δ50 contains residues 806-939 and 990-1171; made in house; host or cells: baculovirus/insect cell system
Nature of the assay: VEGF-R2 coupled spectrophotometric assay, unphosphorylated construct (FLVK). In kind it is biochemical. The conditions noted are these: for inhibition at 0.05 µM: percent inhibition at 50 nM. The essentials:
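Continuous coupled assay (PEP, PK, LDH; NADH loss at 340 nm) in 200 mM HEPES pH 7.5 with 3 mM ATP, 20 mM poly(E4Y1), 60 mM MgCl2 plus 2 mM MnCl2, started with 5-40 nM non-autophosphorylated VEGF-R2Δ50. Ki values from activity across compound concentrations, Morrison fit.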

T2 sequence (P35968 with tags, fused parts or gaps DEL940-989/E990V limits assumed): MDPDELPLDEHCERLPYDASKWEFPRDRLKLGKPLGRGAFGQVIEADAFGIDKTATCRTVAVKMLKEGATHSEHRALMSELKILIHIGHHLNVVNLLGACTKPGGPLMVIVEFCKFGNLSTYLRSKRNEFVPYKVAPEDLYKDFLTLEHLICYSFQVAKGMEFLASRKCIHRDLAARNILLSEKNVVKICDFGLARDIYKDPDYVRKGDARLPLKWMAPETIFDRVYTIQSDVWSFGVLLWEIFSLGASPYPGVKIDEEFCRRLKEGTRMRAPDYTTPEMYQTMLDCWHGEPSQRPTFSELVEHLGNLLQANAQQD
T1 sequence (P09619 33-1106): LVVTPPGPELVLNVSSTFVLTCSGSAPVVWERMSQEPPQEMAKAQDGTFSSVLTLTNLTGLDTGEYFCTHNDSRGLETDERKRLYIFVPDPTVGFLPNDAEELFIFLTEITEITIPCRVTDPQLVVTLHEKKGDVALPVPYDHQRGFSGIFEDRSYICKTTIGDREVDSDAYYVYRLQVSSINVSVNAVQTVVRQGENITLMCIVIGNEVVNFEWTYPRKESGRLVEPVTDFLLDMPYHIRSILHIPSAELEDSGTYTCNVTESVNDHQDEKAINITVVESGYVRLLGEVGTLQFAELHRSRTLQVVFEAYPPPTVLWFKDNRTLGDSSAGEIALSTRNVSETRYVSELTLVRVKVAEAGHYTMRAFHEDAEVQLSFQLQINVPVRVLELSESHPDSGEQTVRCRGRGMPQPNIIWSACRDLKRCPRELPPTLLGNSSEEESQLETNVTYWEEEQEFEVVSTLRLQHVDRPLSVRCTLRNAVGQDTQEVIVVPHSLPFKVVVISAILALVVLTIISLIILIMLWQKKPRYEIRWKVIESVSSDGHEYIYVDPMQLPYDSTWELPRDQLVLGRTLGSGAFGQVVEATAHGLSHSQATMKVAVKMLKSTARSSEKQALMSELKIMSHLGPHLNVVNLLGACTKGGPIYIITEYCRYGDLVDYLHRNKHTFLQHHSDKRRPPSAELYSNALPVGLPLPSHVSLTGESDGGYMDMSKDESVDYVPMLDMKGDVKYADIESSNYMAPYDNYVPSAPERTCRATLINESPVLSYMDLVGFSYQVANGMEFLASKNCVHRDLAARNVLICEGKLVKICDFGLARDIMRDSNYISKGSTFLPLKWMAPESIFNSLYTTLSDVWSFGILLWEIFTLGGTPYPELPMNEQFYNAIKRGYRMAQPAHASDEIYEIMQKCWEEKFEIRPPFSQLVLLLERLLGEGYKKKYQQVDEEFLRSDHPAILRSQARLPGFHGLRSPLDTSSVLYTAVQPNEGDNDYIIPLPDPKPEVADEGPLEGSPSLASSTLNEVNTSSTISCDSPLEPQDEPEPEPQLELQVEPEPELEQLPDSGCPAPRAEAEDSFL

On to `Cc1cc2cc(Oc3ccnc4cc(C(=O)N5CC[C@H](O)C5)sc34)ccc2n1C(=O)NCCO` [Example 9k, 5-[2-(3S-Hydroxy-pyrrolidine-1-carbonyl)-thieno[3,2-b]pyridin-7-yloxy]-2-methyl-indole-1-carboxylic acid (2-hydroxy-ethyl)-amide], for which the IC50 (as a rule, the concentration that inhibits the measured activity by half) at PDGFRβ amounted to 274000 pM. Further, the IC50 in assay [1] was 490 pM. Moreover, in assay [2], the Ki (as a rule, a measure of affinity in units of concentration, obtained from inhibition or displacement) turned out to be 932 pM and at 0.05 µM the inhibition was 90%.

As for `Cc1cc2cc(Oc3ccnc4cc(C(=O)N5CC[C@H](O)C5)sc34)ccc2n1C(=O)NCCCO` [Example 9l, 5-[2-(3S-Hydroxy-pyrrolidine-1-carbonyl)-thieno[3,2-b]pyridin-7-yloxy]-2-methyl-indole-1-carboxylic acid (3-hydroxy-propyl)-amide], the IC50 at PDGFRβ is 216000 pM. For the same molecule, in assay [1], the 50% inhibitory concentration (IC50) came out at 270 pM. In assay [2], the affinity, expressed as Ki, was 327 pM and 0.05 µM produced 97% inhibition.

Values taken from patent US6833456B2, “Indolyl-urea derivatives of thienopyridines useful as antiangiogenic agents, and methods for their use” (Agouron Pharmaceuticals, Inc., priority 2002, dated 2004).
